Entries after “also recorded” stand apart in the source; their conditions may differ.
Test system: healthy mice
Assay: MicroPET/CT biodistribution in healthy mice
Type: in vivo
Settings: PET/CT

## OC[C@H]1OC(O)[C@H](F)[C@@H](O)[C@@H]1O (some centres unmarked) [[^18F]FDG, fluorodeoxyglucose]
  site of uptake, metabolism and elimination: typical metabolism in the heart, brain, and brown fat; also recorded: uptake was observed in the brain and heart
  uptake in the center of the brain: about 1.6 SUV
  uptake in the center of the heart: about 2.7 SUV
Center of the brain
  brain uptake of [18F]FDG relative to [18F]Glc1: about 20 times
Center of the heart
  heart uptake of [18F]FDG relative to [18F]Glc1: about 14 times

Source: publication PMC9798496 (ACS Omega, 2022)
